# Target: T1, BC3310 (Bacillus cereus, UniProt Q81B77)
# T1 construct: gene BC_3310; full-length in pTTQ18 with C-terminal RGSHis6 tag, expressed in E. coli DH5alpha deltaacrAB; 12 predicted TM helices; migrates at ~30 kDa
# Assay: whole-cell ethidium accumulation assay (fluorescence), E. coli expressing BC3310 vs empty vector
# Type: cell-based
# Conditions: 25 uM ethidium bromide, PBS with 0.4% glucose, pH 7-7.4; CCCP-sensitive efflux
# T1 sequence (Q81B77 entry or part of it): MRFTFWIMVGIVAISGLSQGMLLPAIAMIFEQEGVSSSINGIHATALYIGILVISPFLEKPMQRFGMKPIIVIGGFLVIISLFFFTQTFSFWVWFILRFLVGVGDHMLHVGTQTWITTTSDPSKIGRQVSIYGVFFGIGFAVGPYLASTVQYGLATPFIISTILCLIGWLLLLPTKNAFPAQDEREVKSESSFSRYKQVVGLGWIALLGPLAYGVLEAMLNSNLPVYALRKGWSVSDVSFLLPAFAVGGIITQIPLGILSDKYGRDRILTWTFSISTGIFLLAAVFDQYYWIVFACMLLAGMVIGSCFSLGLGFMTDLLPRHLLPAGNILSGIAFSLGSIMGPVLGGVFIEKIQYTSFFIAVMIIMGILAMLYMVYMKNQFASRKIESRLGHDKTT
smiles,measurement,value
CC[n+]1c(-c2ccccc2)c2cc(N)ccc2c2ccc(N)cc21 [ethidium bromide],"whole-cell ethidium accumulation assay (fluorescence), E. coli expressing BC3310","showed less fluorescence compared to the empty vector control (pTTQ18), thereby implying that BC3310 exports"

# Reference: publication PMC4601019, “Bacillus cereus eﬄux protein BC3310 – a multidrug transporter of the unknown major facilitator family, UMF-2” (Frontiers in Microbiology, 2015)
